Consider 5 compounds from patent publication US20250099431A1, “GLP-1R MODULATING COMPOUNDS” (priority 2020, published 2025).

Usually EC50 stands for the concentration needed to bring the measured effect to its halfway point.

Data set [1] can be described thus: Microsomal stability (liver microsomal assay, mixed cofactors); predicted hepatic clearance. It counts as in vitro ADME. The conditions noted are these: liver microsomes 1.0 mg protein/mL (+UDPGA +NADPH), 1 μM analyte, 37° C.; scaled with human liver weight and hepatic blood flow 1.3 L/hr/kg. In a few lines: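 Compound at 1 μM with human or rat pooled liver microsomes, alamethicin-treated, pH 7.4 phosphate, NADPH-regenerating plus UDPGA cofactors, 37° C, sampled 0–70 min. Parent/internal standard ratio by RapidFire QToF MS; half-life from initial log-linear decay, scaled to intrinsic and predicted hepatic clearance and hepatic extraction.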

Data set [2] addresses GLP-1R (Homo sapiens (Human), UniProt P43220). Description: GLP-1R activation: cAMP increase in CHO cells stably expressing GLP-1R. It counts as cell-based. As to conditions: cAMP increase, 10 point dose response, 30 minutes incubation at 37° C., read-out: EC50. In a few lines:
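CHO cells stably expressing GLP-1R were incubated 1 h at 37 °C in medium with 1% BSA, then exposed to compound in a 10-point dose response for 30 min at 37 °C. cAMP rise was detected by HTRF (Gs Dynamic kit). EC50 came from a sigmoidal fit of response against log agonist concentration.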

GLP-1R, sequence (P43220 24-463): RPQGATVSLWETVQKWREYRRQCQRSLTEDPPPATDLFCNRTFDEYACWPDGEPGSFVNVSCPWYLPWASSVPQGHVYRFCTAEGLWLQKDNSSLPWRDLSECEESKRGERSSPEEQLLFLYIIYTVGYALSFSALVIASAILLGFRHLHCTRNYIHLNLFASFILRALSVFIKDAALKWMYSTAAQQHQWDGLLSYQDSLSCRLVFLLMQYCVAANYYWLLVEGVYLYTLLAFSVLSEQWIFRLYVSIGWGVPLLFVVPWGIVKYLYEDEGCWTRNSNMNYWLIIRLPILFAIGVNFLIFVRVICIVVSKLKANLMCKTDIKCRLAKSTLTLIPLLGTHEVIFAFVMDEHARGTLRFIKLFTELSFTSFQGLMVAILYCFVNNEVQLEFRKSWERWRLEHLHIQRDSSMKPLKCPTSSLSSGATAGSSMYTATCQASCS

On to `CC1(c2ccc(Cl)cc2F)Oc2cccc(-c3cc(F)c(Cc4nc5ccc(C(=O)O)cc5n4C[C@@H]4CCO4)c(F)c3)c2O1` (stereo partly drawn) [Example 22, 2-(4-(2-(4-chloro-2-fluorophenyl)-2-methylbenzo[d][1, 3]dioxol-4-yl)-2,6-difluorobenzyl)-1-(((S)-oxetan-2-yl)methyl)-1H-benzo[d]imidazole-6-carboxylic acid], for which the “Predicted Hepatic Clearance (Pred. Cl.)” value in data set [1] is under 1.83 mL/min/kg. In addition, in data set [2], the EC50 came out at 0.024 nM.
As for `COCCn1c(Cc2c(F)cc(-c3cccc4c3OC(c3ccc(C#N)cc3F)O4)cc2F)nc2ccc(C(=O)O)cc21` (stereo not shown) [Example 5, 2-(4-(2-(4-cyano-2-fluorophenyl)benzo[d][1, 3]dioxol-4-yl)-2,6-difluorobenzyl)-1-(2-methoxyethyl)-1H-benzo[d]imidazole-6-carboxylic acid], the “Predicted Hepatic Clearance (Pred. Cl.)” value in data set [1] is under 1.83 mL/min/kg. For the same compound, the EC50 in data set [2] came to 161 nM.
For the compound `CC1(c2ccc(C#N)cc2F)Oc2cccc(-c3cc(F)c(Cc4nc5ccc(C(=O)O)cc5n4C[C@@H]4CCO4)c(F)c3F)c2O1` (single isomer, unassigned) [Example 95], the “Predicted Hepatic Clearance (Pred. Cl.)” value in data set [1] was 2.83 mL/min/kg. Further, in data set [2], the EC50 amounted to 21 nM.
As to `CC1(c2ccc(Cl)cc2F)Oc2cccc(-c3cc(F)c(Cc4nc5c(F)cc(C(=O)O)cc5n4CC4(CC(N)=O)CC4)c(F)c3)c2O1` (stereo not shown) [Example 9, 1-((1-(2-amino-2-oxoethyl)cyclopro-pyl)methyl)-2-(4-(2-(4-chloro-2-fluorophenyl)-2-methylbenzo[d][1, 3]dioxol-4-yl)-2,6-difluorobenzyl)-4-fluoro-1H-benzo[d]imidazole-6-carboxylic acid], the “Predicted Hepatic Clearance (Pred. Cl.)” value in data set [1] was 2.5 mL/min/kg. Further, the EC50 in data set [2] was 8.6 nM.
`CC1(c2ccc(Cl)cc2F)Oc2cccc(-c3cc(F)c(Cc4nc5ccc(C(=O)O)cc5n4C[C@@H]4CCO4)c(C#N)c3)c2O1` (stereo partly drawn) [Example 18, 2-(4-(2-(4-chloro-2-fluorophenyl)-2-methylbenzo[d][1, 3]dioxol-4-yl)-2-cyano-6-fluorobenzyl)-1-(((S)-oxetan-2-yl)methyl)-1H-benzo[d]imidazole-6-carboxylic acid]: the “Predicted Hepatic Clearance (Pred. Cl.)” value in data set [1] is 8 mL/min/kg. The EC50 in data set [2] came to 0.14 nM.
